Reference: PubChem BioAssay AID248 (DTP/NCI, 2004)
Where “and” joins values, the source holds several entries; their conditions need not be identical. Equal entries are not always repeated. Toxic doses and inconclusive results are not listed. Rule as the data show it: active = T/C of 150% or more; inactive = T/C below 125%.

Tested on: L1210 leukemia ip in BDF1 mice, survival T/C
Experiment: NCI In Vivo Anticancer Drug Screen. Data for tumor model L1210 Leukemia (intraperitoneal) in B6D2F1 (BDF1) mice
Conditions: endpoint: mean survival time, higher = longer survival
Summary of the method: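 Tumor was transplanted into mice, which were then dosed with test compound or vehicle alone. Survival was recorded for each group, and the treated figure was expressed relative to the control figure.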

[1] = dose: 100.0 mg/kg/injection, schedule: Q01DX009 (ip), vehicle: Klucel (hydroxypropylcellulose) (HPC)
[2] = dose: 100.0 mg/kg/injection, schedule: Q04DX003 (ip), vehicle: Klucel (hydroxypropylcellulose) (HPC)
[3] = dose: 200.0 mg/kg/injection, schedule: Q01DX009 (ip), vehicle: Klucel (hydroxypropylcellulose) (HPC)
[4] = dose: 200.0 mg/kg/injection, schedule: Q04DX003 (ip), vehicle: Klucel (hydroxypropylcellulose) (HPC)
[5] = dose: 400.0 mg/kg/injection, schedule: Q01DX009 (ip), vehicle: Klucel (hydroxypropylcellulose) (HPC)
[6] = dose: 400.0 mg/kg/injection, schedule: Q04DX003 (ip), vehicle: Klucel (hydroxypropylcellulose) (HPC)
[7] = dose: 100.0 mg/kg/injection, schedule: Q01DX001 (ip), vehicle: Klucel (hydroxypropylcellulose) (HPC)
[8] = dose: 100.0 mg/kg/injection, schedule: Q04DX003 (ip), vehicle: saline
[9] = dose: 200.0 mg/kg/injection, schedule: Q01DX001 (ip), vehicle: Klucel (hydroxypropylcellulose) (HPC)
[10] = dose: 200.0 mg/kg/injection, schedule: Q04DX003 (ip), vehicle: saline
[11] = dose: 400.0 mg/kg/injection, schedule: Q01DX001 (ip), vehicle: Klucel (hydroxypropylcellulose) (HPC)
[12] = dose: 400.0 mg/kg/injection, schedule: Q01DX009 (ip), vehicle: saline with Tween-80
[13] = dose: 400.0 mg/kg/injection, schedule: Q04DX003 (ip), vehicle: saline
[14] = dose: 100.0 mg/kg/injection, schedule: Q04DX003 (ip), vehicle: saline with Tween-80
[15] = dose: 200.0 mg/kg/injection, schedule: Q04DX003 (ip), vehicle: saline with Tween-80
[16] = dose: 400.0 mg/kg/injection, schedule: Q04DX003 (ip), vehicle: saline with Tween-80

Measured: T/C

CCOC(=O)c1ccc(C(=O)OCC)c(Cl)n1
inactive: [1] 97 % of control | [2] 105 % of control | [3] 95 % of control | [4] 97 % of control | [5] 97 % of control | [6] 102 % of control

NC(CSSCC(N)=NC1CCCCC1)=NC1CCCCC1
inactive: dose: 3.0 mg/kg/injection, schedule: Q01DX009 (ip), vehicle: saline 96 % of control and 103 % of control | dose: 6.0 mg/kg/injection, schedule: Q01DX009 (ip), vehicle: saline 106 % of control and 90 % of control | dose: 6.25 mg/kg/injection, schedule: Q04DX002 (ip), vehicle: saline with Tween-80 124 % of control | dose: 12.0 mg/kg/injection, schedule: Q01DX009 (ip), vehicle: saline 103 % of control and 104 % of control | dose: 12.5 mg/kg/injection, schedule: Q01DX001 (ip), vehicle: saline with Tween-80 94 % of control | dose: 12.5 mg/kg/injection, schedule: Q01DX009 (ip), vehicle: carboxymethylcellulose (CMC) 100 % of control and 105 % of control | dose: 12.5 mg/kg/injection, schedule: Q04DX002 (ip), vehicle: saline with Tween-80 109 % of control | dose: 25.0 mg/kg/injection, schedule: Q01DX001 (ip), vehicle: saline with Tween-80 100 % of control | dose: 25.0 mg/kg/injection, schedule: Q01DX009 (ip), vehicle: carboxymethylcellulose (CMC) 103 % of control | dose: 25.0 mg/kg/injection, schedule: Q04DX002 (ip), vehicle: carboxymethylcellulose (CMC) 96 % of control and 91 % of control | dose: 25.0 mg/kg/injection, schedule: Q04DX002 (ip), vehicle: saline with Tween-80 102 % of control | dose: 50.0 mg/kg/injection, schedule: Q04DX002 (ip), vehicle: carboxymethylcellulose (CMC) 95 % of control | dose: 100.0 mg/kg/injection, schedule: Q04DX003 (ip), vehicle: carboxymethylcellulose (CMC) 104 % of control | dose: 200.0 mg/kg/injection, schedule: Q04DX003 (ip), vehicle: carboxymethylcellulose (CMC) 96 % of control

CN(N=O)C(=O)Nc1ccc(F)cc1
inactive: dose: 6.25 mg/kg/injection, schedule: Q01DX Z (ip), vehicle: carboxymethylcellulose (CMC) 110 % of control | dose: 12.5 mg/kg/injection, schedule: Q01DX Z (ip), vehicle: carboxymethylcellulose (CMC) 103 % of control | dose: 25.0 mg/kg/injection, schedule: Q01DX Z (ip), vehicle: carboxymethylcellulose (CMC) 111 % of control | dose: 75.0 mg/kg/injection, schedule: Q01DX001 (ip), vehicle: carboxymethylcellulose (CMC) 120 % of control

COc1cc(C)oc(=O)c1
inactive: [7] 110 % of control | dose: 100.0 mg/kg/injection, schedule: Q01DX001 (ip), vehicle: saline 98 % of control | dose: 100.0 mg/kg/injection, schedule: Q01DX009 (ip), vehicle: saline 93 % of control and 101 % of control | [8] 97 % of control | [9] 104 % of control | dose: 200.0 mg/kg/injection, schedule: Q01DX001 (ip), vehicle: saline 98 % of control | dose: 200.0 mg/kg/injection, schedule: Q01DX009 (ip), vehicle: saline 93 % of control and 104 % of control | [10] 93 % of control | [11] 106 % of control | dose: 400.0 mg/kg/injection, schedule: Q01DX001 (ip), vehicle: saline 102 % of control | [12] 108 % of control | dose: 400.0 mg/kg/injection, schedule: Q01DX009 (ip), vehicle: saline 93 % of control | [13] 92 % of control

Cc1ccc(NC(=O)C(Cl)Cl)cc1Cl
inactive: dose: 50.0 mg/kg/injection, schedule: Q01DX009 (ip), vehicle: Klucel (hydroxypropylcellulose) (HPC) 103 % of control | [1] 107 % of control | [3] 98 % of control

O=C1NC(=O)c2c(Cl)c(Cl)c(Cl)c(Cl)c21
inactive: dose: 25.0 mg/kg/injection, schedule: Q04DX003 (ip), vehicle: saline 95 % of control | dose: 50.0 mg/kg/injection, schedule: Q04DX003 (ip), vehicle: saline 106 % of control | [8] 92 % of control and 93 % of control | [10] 98 % of control | [13] 111 % of control

N#CC1(Cc2ccc(Br)cc2)c2cc(OC(=O)c3ccccc3)ccc2C=CN1C(=O)c1ccccc1 (stereo unspecified)
inactive: [2] 96 % of control | [4] 99 % of control | [6] 99 % of control

O=C1C(n2ccc(=O)[nH]c2=O)CCN1CCOCc1ccccc1 (stereo unspecified)
inactive: [1] 105 % of control | [3] 105 % of control | [5] 100 % of control

Nc1nc(Cl)nc2c1ncn2Cc1ccccc1
inactive: dose: 9.5 mg/kg/injection, schedule: Q01DX001 (ip), vehicle: other 101 % of control | dose: 19.0 mg/kg/injection, schedule: Q01DX001 (ip), vehicle: other 105 % of control | dose: 38.0 mg/kg/injection, schedule: Q01DX001 (ip), vehicle: other 101 % of control | dose: 75.0 mg/kg/injection, schedule: Q01DX001 (ip), vehicle: other 119 % of control

CCOC(=O)C(=CNc1ccccn1)C(=O)OCC
inactive: dose: 100.0 mg/kg/injection, schedule: Q01DX009 (ip), vehicle: saline with Tween-80 100 % of control | [14] 93 % of control | dose: 200.0 mg/kg/injection, schedule: Q01DX009 (ip), vehicle: saline with Tween-80 104 % of control | [15] 93 % of control | [12] 97 % of control | [16] 97 % of control

CCCCCCCCCCc1nc(N)nc(NCCc2ccccc2)n1
inactive: dose: 100.0 mg/kg/injection, schedule: Q04DX002 (ip), vehicle: Klucel (hydroxypropylcellulose) (HPC) 106 % of control | dose: 200.0 mg/kg/injection, schedule: Q04DX002 (ip), vehicle: Klucel (hydroxypropylcellulose) (HPC) 89 % of control | dose: 400.0 mg/kg/injection, schedule: Q04DX002 (ip), vehicle: Klucel (hydroxypropylcellulose) (HPC) 100 % of control

CC(=O)NC(C)(SC(C)=O)C(=O)O (stereo unspecified)
inactive: [7] 94 % of control | [9] 95 % of control | [11] 94 % of control

CCC(CO)NC(=O)/C=C/c1ccccc1 (stereo unspecified)
inactive: dose: 100.0 mg/kg/injection, schedule: Q01DX001 (ip), vehicle: saline with Tween-80 101 % of control | [14] 97 % of control | dose: 200.0 mg/kg/injection, schedule: Q01DX001 (ip), vehicle: saline with Tween-80 94 % of control | [15] 97 % of control | dose: 400.0 mg/kg/injection, schedule: Q01DX001 (ip), vehicle: saline with Tween-80 100 % of control | [16] 91 % of control

C=C1C(=O)OCC1(C(=O)OCC)C(=O)OCC
inactive: dose: 5.0 mg/kg/injection, schedule: Q01DX009 (ip), vehicle: saline 98 % of control | dose: 10.0 mg/kg/injection, schedule: Q01DX009 (ip), vehicle: saline 103 % of control | dose: 20.0 mg/kg/injection, schedule: Q01DX009 (ip), vehicle: saline 95 % of control

O=[N+]([O-])c1ccc(S(=O)(=O)SC(F)(F)F)cc1
inactive: dose: 75.0 mg/kg/injection, schedule: Q01DX001 (ip), vehicle: saline 106 % of control | dose: 150.0 mg/kg/injection, schedule: Q01DX001 (ip), vehicle: saline 102 % of control

[NH-]CC([NH-])=O.[NH-]CC([NH-])=O.[Ni]
inactive: dose: 3.12 mg/kg/injection, schedule: Q01DX009 (ip), vehicle: water 96 % of control | dose: 6.25 mg/kg/injection, schedule: Q01DX009 (ip), vehicle: water 100 % of control | dose: 12.5 mg/kg/injection, schedule: Q01DX009 (ip), vehicle: water 103 % of control
